# Literature values in patent US9849196B2, “Methods and compositions for altering photophysical properties of fluorophores via proximal quenching” (Cornell University, priority 2009, dated 2017).
# Conditions: background statement
row,solubility in aqueous solutions,SMILES
1,highly insoluble,"C1=CC=CC=CC=C1 [COT, cyclooctatetraene]"
2,highly insoluble,"O=[N+]([O-])c1ccc(CO)cc1 [NBA, p-nitrobenzyl alcohol]"
3,highly insoluble,Cc1c(C)c2c(c(C)c1O)CCC(C)(C(=O)O)O2 (stereo not drawn) [Trolox]
